Results taken from patent US8710045B2, “Agents for preventing and treating disorders involving modulation of the ryanodine receptors” (The Trustees of Columbia University in the City of New York, priority 2004, dated 2014).
Several values for one entry are separate records, joined by “and”; a condition that tells them apart may be missing. Identical values can stand only once.

How the values were obtained:
hERG current = hERG current (Homo sapiens, UniProt Q12809); experiment: hERG current, PatchXpress 7000A automatic parallel patch clamp in hERG-transfected HEK 293 cells (Example 6); conditions: for Individual Data (% Inhibition): single cell
Procedure: HEK293 cells were transfected with a plasmid containing the hERG cDNA and a neomycin resistance gene. Stable transfectants were selected by culturing the cells in the presence of G418. The selection pressure was maintained by continued culture in the presence of G418. […] Cells for use in electrophysiology were cultured in 35 mm dishes.
Onset and steady state block of hERG current was measured using a pulse pattern with fixed amplitudes (conditioning prepulse: +20 mV for 2 seconds; test pulse: −50 mV for 2 seconds) repeated at 10 second intervals, from a holding potential of −80 mV. Peak tail current was measured during the 2 second step to −50 mV. A steady state was maintained for at least 30 seconds before applying the test compound or the positive control. Peak tail current was monitored until a new steady state was achieved. Test compound concentrations were applied cumulatively in ascending order without washout between applications.
Data acquisition and analysis was performed using the suite of pCLAMP (Vre. 8.2) programs (Axon Instruments, Union City, Calif.). Steady state was defined by the limiting constant rate of change with time (linear time dependence). The steady state before and after application of the test or control compounds was used to calculate the percentage of current inhibited at each concentration. […] Nonlinear squares fits were solved with the Solver add-in for Excel 2000 (Microsoft, Redmond, Wash.).
Multiple compounds of the invention were tested for their effects on hERG currents. The compounds tested were: ARM036-Na, ARM047, ARM048, ARM050, ARM057, ARM064, ARM074, ARM075, ARM076, ARM077, ARM101, ARM102, ARM103, ARM104, ARM106, ARM107 and ARM26. […] Electrophysiological recordings were made using the PatchXpress 7000 A (Molecular Devices) automatic parallel patch clamp system. […] The duration of exposure to each test concentration was 5 minutes.

PKA-phosphorylated RyR2 = molecular target: T1, PKA-phosphorylated RyR2 (Homo sapiens, UniProt Q92736); experiment: FKBP12.6 rebinding assay: FKBP12.6 binding to PKA-phosphorylated RyR2 in cardiac SR; conditions: compound 0.5-1000 nM; Michaelis-Menten curve fitting
T1 construct: from tissue
Procedure: Samples are centrifuged at 95,000 g for 10 min and the pellets are washed three times in 0.2 ml imidazole buffer. The final pellets are pooled and resuspended in imidazole buffer (final concentration≈10 μg/μl). […] Samples then are centrifuged at 100,000 g for 10 minutes and pellets washed 3 times with imidizol buffer. […] Immunoblots are developed using an anti-FKBP antibody (1:3,000 dilution). […] The intracellular solution contains (in mM): CsCl, 60; CaCl2, 1; EGTA, 11; MgCl2, 1; K2ATP, 5; HEPES, 10; aspartic acid, 50; pH 7.4 (CsOH). Under these conditions, it is expected that the measured current was carried by Ba^2+ primarily through L-type calcium channels which is referred to as ICa,L. Drugs are applied by a local solution changer and reach the cell membrane within 1 s.
The FKBP12.6 rebinding assay described above is used to determine the amount of FKBP12.6 binding to PKA-phosphorylated RyR2 at various concentrations (0.5-1000 nM) of the compounds shown. EC50 values are calculated using Michaelis-Menten curve fitting.
The EC50 values are calculated using Michaelis-Menten curve fitting.

hERG current, sequence (Q12809 whole entry): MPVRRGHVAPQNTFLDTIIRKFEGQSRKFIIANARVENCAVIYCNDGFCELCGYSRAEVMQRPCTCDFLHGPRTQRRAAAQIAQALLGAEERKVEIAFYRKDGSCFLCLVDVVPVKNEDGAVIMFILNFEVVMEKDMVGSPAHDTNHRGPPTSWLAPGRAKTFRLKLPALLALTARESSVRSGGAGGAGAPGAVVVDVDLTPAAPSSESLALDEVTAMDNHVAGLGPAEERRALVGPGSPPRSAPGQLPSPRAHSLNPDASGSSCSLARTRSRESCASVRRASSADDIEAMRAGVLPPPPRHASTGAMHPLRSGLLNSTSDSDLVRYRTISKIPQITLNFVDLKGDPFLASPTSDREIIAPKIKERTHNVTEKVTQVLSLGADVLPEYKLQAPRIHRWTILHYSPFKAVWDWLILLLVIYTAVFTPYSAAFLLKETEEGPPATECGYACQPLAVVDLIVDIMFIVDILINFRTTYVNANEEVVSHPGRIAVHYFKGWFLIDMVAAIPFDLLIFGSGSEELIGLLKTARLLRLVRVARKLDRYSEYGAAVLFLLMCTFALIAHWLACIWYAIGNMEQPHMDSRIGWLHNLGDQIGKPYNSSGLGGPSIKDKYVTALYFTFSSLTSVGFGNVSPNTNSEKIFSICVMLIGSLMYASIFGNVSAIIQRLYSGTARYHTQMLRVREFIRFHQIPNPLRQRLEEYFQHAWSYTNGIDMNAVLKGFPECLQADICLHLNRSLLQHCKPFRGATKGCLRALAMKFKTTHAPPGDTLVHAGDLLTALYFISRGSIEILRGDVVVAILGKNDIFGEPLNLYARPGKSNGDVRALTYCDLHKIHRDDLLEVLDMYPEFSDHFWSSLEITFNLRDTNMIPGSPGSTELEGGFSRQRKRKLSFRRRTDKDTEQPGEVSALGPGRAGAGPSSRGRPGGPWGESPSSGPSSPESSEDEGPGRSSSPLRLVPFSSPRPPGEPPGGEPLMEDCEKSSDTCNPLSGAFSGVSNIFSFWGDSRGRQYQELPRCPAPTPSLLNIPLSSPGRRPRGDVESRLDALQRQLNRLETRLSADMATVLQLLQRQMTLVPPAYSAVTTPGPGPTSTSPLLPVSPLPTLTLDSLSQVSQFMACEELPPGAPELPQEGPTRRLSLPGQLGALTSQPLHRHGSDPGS

SMILES	EC50 (PKA-phosphorylated RyR2) [nM]	also measured
COc1ccc2c(c1)CN(C(=O)C(=O)[O-])CCS2.[Na+] [ARM036-Na]		Mean % hERG Inhibition (hERG current; 0.01 μM): 0.2%; Individual Data (% Inhibition) (hERG current; 0.01 μM): 0.0% and 0.3%; Mean % hERG Inhibition (hERG current; 0.1 μM): 5.0%; Individual Data (% Inhibition) (hERG current; 0.1 μM): 10.0% and 0.0%; Mean % hERG Inhibition (hERG current; 1 μM): 5.5%; Individual Data (% Inhibition) (hERG current; 1 μM): 2.4% and 8.6%; Mean % hERG Inhibition (hERG current; 10 μM): 6.7%; Individual Data (% Inhibition) (hERG current; 10 μM): 5.1% and 8.2%; hERG current inhibition at the highest concentration tested (hERG current; highest concentration tested (10 μM)): less than 50%
COc1ccc2c(c1)CN(S(=O)(=O)CCN1CCC(Cc3ccccc3)CC1)CCS2 [S1]	150	
CCCCN(CCCC)CCS(=O)(=O)N1CCSc2ccc(OC)cc2C1 [S2]	211	
COc1ccc2c(c1)CN(S(C)(=O)=O)CCS2 [S4]	102	
COc1ccc2c(c1)CN(S(=O)(=O)c1ccc(C)cc1)CCS2 [S5]	208	
COc1ccc2c(c1)CN(C(=O)N1CCC(Cc3ccccc3)CC1)CCS2 [S6]	252	
COc1ccc2c(c1)CN(C(=O)CI)CCS2 [S7]	55	
COc1ccc2c(c1)CN(C(=O)c1ccccc1)CCS2 [S9]	205	
COc1ccc2c(c1)CN(C(=O)Nc1ccccc1)CCS2 [S11]	181	
COc1ccc2c(c1)CN(C(=S)Nc1ccccc1)CCS2 [S12]	197	
COc1ccc2c(c1)CN(C(=O)CCC(=O)N1CCSc3ccc(OC)cc3C1)CCS2 [S19]	265	
COc1ccc2c(c1)CN(C(=O)c1cccc(C(=O)N3CCSc4ccc(OC)cc4C3)n1)CCS2 [S22]	355	
COc1ccc2c(c1)CN(C(=O)CCN1CCC(Cc3ccccc3)CC1)CCS2(=O)=O [S23]	268	
COc1ccc2c(c1)C(=O)NCCS2 [S25]	40	
C=CC(=O)N1CCSc2ccc(OC)cc2C1 [S27]	~50	
COc1ccc2c(c1)CN(C(=O)CC(=O)O)CCS2 [S38]	44	
COc1ccc2c(c1)CN(C(=O)c1ccc(N=[N+]=[N-])cc1O)CCS2 [S40]	100	
COc1ccc2c(c1)CN(C(=O)C(=O)NCCSSCCNC(=O)c1ccc(N=[N+]=[N-])cc1[N+](=O)[O-])CCS2 [S43]	80	
COc1ccc2c(c1)CN(C(=O)C(=O)NCCSSCCNC(=O)C(=O)N1CCSc3ccc(OC)cc3C1)CCS2 [S44]	121	
COc1ccc2c(c1)CN(C(=O)C(=O)NCCSSCCNC(=O)c1ccc(N=[N+]=[N-])cc1O)CCS2 [S45]	80	
COc1ccc2c(c1)CN(C(N)=O)CCS2 [S46]	150	
